Measurements taken from patent US4550186A, “Binuclear copper (II) carboxylates formed from amine-carboxyboranes” (Duke University, priority 1983, dated 1985).

Assays:
Acetyl CoA Carboxylase = target: T1, Acetyl CoA Carboxylase (Mus musculus, UniProt Q5SWU9); assay: In vitro liver enzyme study: acetyl CoA carboxylase; type: biochemical; conditions: in vitro CF1 liver
T1 construct: 10% homogenates of CF1 male mouse liver; from tissue; host or cells: CF1 male mouse liver, 10% homogenate
Procedure: In vitro enzymatic studies were determined using 10% homogenates of CF1 male mouse liver with 50-200 μM of test drugs. In vivo enzymatic studies were determined using 10% homogenates of liver from CF1 male mice obtained after administering the agents for 16 days at a dose ranging from 2.5-20 mg/kg/day intraperitoneally. The liver homogenates for both in vitro and in vivo studies were prepared in 0.25M sucrose and 0.001M (ethylenedinitrilo)tetraacetic acid. Acetyl coenzyme A synthetase and adenosine triphosphate dependent citrate lyase activities were determined spectrophotometrically at 540 nm as the hydroxylamate of acetyl coenzyme A formed after 30 min at 37° C. Mitochondrial citrate exchange was determined by the procedure of Robinson et al [Eur. J. Biochem., 216, 63 (1970)] using ^14 C-sodium bicarbonate (41 mCi/mmol) incorporated into mitochondrial ^14 C-citrate after isolating rat mitochondria (9000 g×10 min) from the homogenates. The exchanges of the ^14 C-citrate were determined after incubating the mitochondrial fraction which was loaded with labeled citrate and test drugs for 10 min. Then the radioactivity was measured in the mitochondrial and supernantant fractions in scintillation fluid and expressed as a percentage. Cholesterol side chain oxidation was determined by the method of Kritchevsky and Tepper [Artherosclerosis, 18, 93 (1973)] using (26-^14 C) cholesterol (50 mCi/mmol) and mitochondria isolated from rat liver homogenates. […] Fatty acid synthetase activity was determined by the method of Brady et al [J. Biol. Chem., 235, 3093 (1960)] using [2-^14 C] malonyl-coenzyme A (37.5 mCi/mmol) which was incorporated into newly synthesized fatty acids that were extracted with ether and counted. Acyl transferase activity was determined with glycerol-3phosphate [L-2-^3 H(N)] […] HCl and counted. Phosphatidate phosphohydrolase activity was measured as the inorganic phosphate released after 30 min from phosphatidic acid by the method of Mavis et al [J. Lipid Res., 19, 467 (1978)]. […]

Holtzman male rats = assay: Cholesterol absorption study; type: in vivo, rat; conditions: rats treated 14 days, over a 24-hr period
Procedure: Holtzman male rats (~400 g) were administered the test drug orally for 14 days at 10 mg/kg/day. On day 13, 10 μCi of 1,2-^3 H(N)-cholesterol (40.7 Ci/mmol) was administered to the rat orally. Twenty-four hours later, the blood was collected and the serum separated by centrifugation. Both the serum and the precipitate were counted.

[1] = target: T2, ribosomal ribonucleic acid polymerase (Mus musculus, UniProt O35134+P70700); assay: In vivo ribosomal ribonucleic acid polymerase activity
T2 construct: enzymes isolated from nuclei; endogenous in cells; host or cells: Ehrlich ascites tumor cell nuclei, ammonium sulfate fraction
Procedure: (§1) CF1 male mice (~30 g) were implanted with 2×10^6 Ehrlich ascites tumor cells, intraperitoneally on Day 0. Compound I was suspended by homogenation in 0.05% polysorbate.80-water and administered intraperitoneally at 10 and 20 mg/kg for 9 days to determine its effectiveness for inhibition of tumor growth. Mice were sacrificed on Day 10, and the ascites fluid was collected from the peritoneal cavity. The volume and ascrit (packed cell volume) were determined for each animal and the percent inhibition of tumor growth was calculated. For the metabolic studies, mice were treated on Days 8 and 9 with 10 mg/kg of Compound I, intraperitoneally. The animal was sacrificed on Day 10 and the ascites fluid harvested. The in vitro metabolic studies were performed at […] final concentration of Compound I.
(§2) In vitro and in vivo nuclear deoxyribonucleic acid polymerase activity was determined on isolated Ehrlich ascites cell nuclei. The incubation was that described by Sawada et al [Can. Res., 34, 3341 (1974)] except that [methyl-^3 H] deoxythymidine triphosphate (82.4 Ci/mmol) was used. The acid insoluble nucleic acid was collected on GF/F filters and counted. Nuclear ribonucleic acid polymerase activities were determined on enzymes isolated from nuclei. […] The acid insoluble ribonucleic acid was collected on nitrocellulose filters and counted.

[2] = target: T3, messenger ribonucleic acid polymerase (Mus musculus, UniProt P08775+Q8CFI7); assay: In vitro messenger ribonucleic acid polymerase activity; type: biochemical; conditions: 0.25 to 1.0 mM
T3 construct: enzymes isolated from nuclei; endogenous in cells; host or cells: Ehrlich ascites tumor cell nuclei, ammonium sulfate fraction
Procedure: as §1, §2

T2 sequence (P52432 whole entry): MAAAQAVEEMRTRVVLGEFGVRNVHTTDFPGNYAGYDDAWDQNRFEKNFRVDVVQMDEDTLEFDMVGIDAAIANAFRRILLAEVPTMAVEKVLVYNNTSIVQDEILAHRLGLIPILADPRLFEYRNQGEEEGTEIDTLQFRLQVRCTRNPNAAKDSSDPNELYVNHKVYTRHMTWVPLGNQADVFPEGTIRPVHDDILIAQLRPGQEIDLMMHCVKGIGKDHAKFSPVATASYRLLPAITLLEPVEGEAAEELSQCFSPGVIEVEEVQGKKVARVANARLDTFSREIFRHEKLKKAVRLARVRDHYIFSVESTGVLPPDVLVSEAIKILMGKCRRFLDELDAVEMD
T2 sequence (Q791N7 whole entry, further chain): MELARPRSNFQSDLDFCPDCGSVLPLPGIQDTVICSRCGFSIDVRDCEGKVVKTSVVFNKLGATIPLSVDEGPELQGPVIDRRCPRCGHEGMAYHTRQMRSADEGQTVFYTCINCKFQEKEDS
T2 sequence (P97304 whole entry, further chain): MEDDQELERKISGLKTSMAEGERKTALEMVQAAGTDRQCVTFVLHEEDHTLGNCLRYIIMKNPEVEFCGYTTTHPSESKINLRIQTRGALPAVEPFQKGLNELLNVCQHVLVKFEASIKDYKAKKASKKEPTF
T2 sequence (Q78WZ7 whole entry, further chain): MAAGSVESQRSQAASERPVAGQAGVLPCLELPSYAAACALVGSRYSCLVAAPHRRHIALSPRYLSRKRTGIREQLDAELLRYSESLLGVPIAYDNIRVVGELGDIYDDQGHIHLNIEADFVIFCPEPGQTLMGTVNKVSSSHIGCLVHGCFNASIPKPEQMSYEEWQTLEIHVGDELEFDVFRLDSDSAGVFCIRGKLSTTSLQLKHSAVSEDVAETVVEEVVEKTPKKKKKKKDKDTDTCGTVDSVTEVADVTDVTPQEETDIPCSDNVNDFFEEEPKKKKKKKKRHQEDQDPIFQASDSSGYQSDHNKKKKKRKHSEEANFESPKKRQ
T2 sequence (P70700 whole entry): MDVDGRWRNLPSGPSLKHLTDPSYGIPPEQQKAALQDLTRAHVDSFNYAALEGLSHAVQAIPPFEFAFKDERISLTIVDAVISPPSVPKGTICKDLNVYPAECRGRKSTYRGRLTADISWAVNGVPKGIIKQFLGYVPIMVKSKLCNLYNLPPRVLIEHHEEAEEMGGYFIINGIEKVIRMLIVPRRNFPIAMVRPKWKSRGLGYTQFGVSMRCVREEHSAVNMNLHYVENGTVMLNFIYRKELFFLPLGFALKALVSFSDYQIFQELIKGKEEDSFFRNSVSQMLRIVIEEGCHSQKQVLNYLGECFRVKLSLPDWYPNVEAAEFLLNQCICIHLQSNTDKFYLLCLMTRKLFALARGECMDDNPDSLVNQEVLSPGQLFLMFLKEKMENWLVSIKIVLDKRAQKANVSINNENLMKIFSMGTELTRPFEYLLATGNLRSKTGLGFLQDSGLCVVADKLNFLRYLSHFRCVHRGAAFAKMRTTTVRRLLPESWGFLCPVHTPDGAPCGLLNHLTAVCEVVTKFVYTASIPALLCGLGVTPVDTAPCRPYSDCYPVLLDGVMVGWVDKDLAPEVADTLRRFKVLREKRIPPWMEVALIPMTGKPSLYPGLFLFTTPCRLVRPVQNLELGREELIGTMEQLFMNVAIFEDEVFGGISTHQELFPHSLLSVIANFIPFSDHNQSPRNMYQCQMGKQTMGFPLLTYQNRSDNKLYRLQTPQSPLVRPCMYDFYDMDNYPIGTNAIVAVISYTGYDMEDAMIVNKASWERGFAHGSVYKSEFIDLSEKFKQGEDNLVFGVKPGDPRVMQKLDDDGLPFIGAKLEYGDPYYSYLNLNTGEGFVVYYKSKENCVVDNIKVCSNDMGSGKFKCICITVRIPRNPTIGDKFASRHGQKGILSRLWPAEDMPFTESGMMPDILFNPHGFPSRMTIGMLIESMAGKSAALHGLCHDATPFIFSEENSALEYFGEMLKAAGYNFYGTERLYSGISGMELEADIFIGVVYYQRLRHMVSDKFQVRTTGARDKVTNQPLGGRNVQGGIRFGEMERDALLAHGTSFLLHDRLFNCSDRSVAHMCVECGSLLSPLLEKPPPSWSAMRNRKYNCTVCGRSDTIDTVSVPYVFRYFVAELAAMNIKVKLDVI
T2 sequence (O35134 whole entry): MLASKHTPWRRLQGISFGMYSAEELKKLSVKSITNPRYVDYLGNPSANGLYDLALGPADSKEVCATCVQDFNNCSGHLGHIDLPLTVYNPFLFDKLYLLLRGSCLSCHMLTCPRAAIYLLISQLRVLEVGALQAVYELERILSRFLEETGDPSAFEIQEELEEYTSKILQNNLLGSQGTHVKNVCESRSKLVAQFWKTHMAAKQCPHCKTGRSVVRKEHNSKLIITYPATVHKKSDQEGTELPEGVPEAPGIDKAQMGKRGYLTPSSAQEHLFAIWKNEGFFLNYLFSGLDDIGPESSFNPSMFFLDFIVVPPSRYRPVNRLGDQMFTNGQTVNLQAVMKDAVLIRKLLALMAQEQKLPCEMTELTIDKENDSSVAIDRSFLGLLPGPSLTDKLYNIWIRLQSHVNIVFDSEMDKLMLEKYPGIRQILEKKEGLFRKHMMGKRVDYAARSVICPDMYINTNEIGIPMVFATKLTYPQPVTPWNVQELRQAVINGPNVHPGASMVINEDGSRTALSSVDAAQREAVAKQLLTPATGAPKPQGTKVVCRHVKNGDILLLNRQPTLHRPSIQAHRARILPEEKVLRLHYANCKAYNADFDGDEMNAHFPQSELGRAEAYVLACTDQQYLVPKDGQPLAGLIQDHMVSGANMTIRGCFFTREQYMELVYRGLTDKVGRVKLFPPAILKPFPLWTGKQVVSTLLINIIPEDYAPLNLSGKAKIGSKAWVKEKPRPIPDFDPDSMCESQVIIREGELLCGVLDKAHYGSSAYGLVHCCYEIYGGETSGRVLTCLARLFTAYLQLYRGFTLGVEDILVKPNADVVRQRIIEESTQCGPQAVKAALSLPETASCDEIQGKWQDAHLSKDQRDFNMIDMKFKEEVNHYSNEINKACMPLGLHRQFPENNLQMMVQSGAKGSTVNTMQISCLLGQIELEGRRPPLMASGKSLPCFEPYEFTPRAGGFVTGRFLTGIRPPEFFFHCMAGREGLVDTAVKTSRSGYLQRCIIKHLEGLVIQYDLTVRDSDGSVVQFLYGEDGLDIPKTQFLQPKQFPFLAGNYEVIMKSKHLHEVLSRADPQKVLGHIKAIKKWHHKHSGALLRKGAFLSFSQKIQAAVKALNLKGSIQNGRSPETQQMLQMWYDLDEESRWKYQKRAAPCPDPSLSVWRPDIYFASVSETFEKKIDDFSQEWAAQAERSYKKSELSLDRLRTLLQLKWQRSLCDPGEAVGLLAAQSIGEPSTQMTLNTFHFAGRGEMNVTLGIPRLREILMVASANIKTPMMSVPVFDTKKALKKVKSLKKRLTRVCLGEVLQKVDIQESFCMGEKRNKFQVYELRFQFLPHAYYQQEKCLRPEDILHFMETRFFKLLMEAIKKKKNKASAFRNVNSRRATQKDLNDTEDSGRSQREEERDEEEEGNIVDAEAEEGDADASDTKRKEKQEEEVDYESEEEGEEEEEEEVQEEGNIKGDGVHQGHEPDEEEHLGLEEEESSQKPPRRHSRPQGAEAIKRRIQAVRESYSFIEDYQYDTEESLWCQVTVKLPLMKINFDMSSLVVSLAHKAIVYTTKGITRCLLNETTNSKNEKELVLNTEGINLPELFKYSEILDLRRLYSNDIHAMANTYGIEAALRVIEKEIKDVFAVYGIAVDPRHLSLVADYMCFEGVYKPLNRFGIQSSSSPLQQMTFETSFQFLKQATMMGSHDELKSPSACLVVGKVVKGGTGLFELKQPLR

{Cu[(CH3)3 N.BH2 CO2 ]2.(CH3)3 N.BH2 COOH} [Compound I]
Acetyl CoA Carboxylase (Acetyl CoA Carboxylase; 50 μM): 96 ± 6 Percent Control | Acetyl CoA Carboxylase (Acetyl CoA Carboxylase; 100 μM): 93 ± 5 Percent Control | Acetyl CoA Carboxylase (Acetyl CoA Carboxylase; 200 μM): 92 ± 5 Percent Control | adsorption of orally administered 3H-cholesterol reduced (Holtzman male rats): 85% | ribosomal ribonucleic acid polymerase activity [1]: not affected | Ribosmoal ribonucleic acid polymerase activity ([1]; 10 mg/kg/day I.P. on Days 8 and 9): 96 ± 11 % Control | messenger ribonucleic acid polymerase inhibition [2]: not inhibited
